Data from patent US8173689B2 (Novartis AG, priority 2006, dated 2012).
Like-named read-outs stand apart in the source and are kept apart here.

What was measured:
kinase domain of PDGFRβ = biological target: T1, kinase domain of PDGFRβ (Homo sapiens, UniProt P09619); assay: Inhibition of PDGFRb kinase signaling in an in vitro biochemical assay (alphascreen); details: tested at about 1 μM, read-out: PDGFRβ percent inhibition
T1 construct: The kinase domain of PDGFRβ was assayed in 50 mM Hepes; purchased Invitrogen P3082
T1 sequence (P09619 600-962 limits assumed): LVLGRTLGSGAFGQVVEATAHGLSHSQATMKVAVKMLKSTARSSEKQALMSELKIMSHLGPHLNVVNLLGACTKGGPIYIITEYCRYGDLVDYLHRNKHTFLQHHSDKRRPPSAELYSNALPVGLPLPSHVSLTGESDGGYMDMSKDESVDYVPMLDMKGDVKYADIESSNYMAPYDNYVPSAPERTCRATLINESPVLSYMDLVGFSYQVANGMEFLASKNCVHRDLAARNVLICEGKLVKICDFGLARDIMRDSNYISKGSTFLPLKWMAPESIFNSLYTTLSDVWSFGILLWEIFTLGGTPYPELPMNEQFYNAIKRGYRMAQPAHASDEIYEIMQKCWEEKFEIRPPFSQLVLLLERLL

[1] = test system: MNFS60 (murine AML cells); assay: Cell viability assay in MCSF dependent MNFS60 cells (Cell Titer Glo); format: cell-based; details: Mus musculus, tested at about 1 μM, read-out: M-NFS-60 CP percent inhibition
How it was run: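 Cells are cultured with 10 ng/ml MCSF and test compound for 72 hrs at 37° C. in 5% CO2. CellTiter-Glo reagent is then added to gauge viable cell number, and EC50s are fitted from triplicates.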

[2] = biological target: T2, full-length human CSF-1R receptor (Homo sapiens, UniProt P07333); assay: In vitro inhibition of CSF-1R receptor tyrosine phosphorylation in transfected HEK293H cells stimulated with MCSF; format: cell-based; details: HEK293-H, tested at about 1 μM, read-out: pCSF1R percent inhibition
T2 construct: transfected with the full-length human CSF-1R receptor cloned in house; expressed in transfected cells; host or cells: HEK293H (Invitrogen Cat. #11631017)
T2 sequence (P07333 20-972): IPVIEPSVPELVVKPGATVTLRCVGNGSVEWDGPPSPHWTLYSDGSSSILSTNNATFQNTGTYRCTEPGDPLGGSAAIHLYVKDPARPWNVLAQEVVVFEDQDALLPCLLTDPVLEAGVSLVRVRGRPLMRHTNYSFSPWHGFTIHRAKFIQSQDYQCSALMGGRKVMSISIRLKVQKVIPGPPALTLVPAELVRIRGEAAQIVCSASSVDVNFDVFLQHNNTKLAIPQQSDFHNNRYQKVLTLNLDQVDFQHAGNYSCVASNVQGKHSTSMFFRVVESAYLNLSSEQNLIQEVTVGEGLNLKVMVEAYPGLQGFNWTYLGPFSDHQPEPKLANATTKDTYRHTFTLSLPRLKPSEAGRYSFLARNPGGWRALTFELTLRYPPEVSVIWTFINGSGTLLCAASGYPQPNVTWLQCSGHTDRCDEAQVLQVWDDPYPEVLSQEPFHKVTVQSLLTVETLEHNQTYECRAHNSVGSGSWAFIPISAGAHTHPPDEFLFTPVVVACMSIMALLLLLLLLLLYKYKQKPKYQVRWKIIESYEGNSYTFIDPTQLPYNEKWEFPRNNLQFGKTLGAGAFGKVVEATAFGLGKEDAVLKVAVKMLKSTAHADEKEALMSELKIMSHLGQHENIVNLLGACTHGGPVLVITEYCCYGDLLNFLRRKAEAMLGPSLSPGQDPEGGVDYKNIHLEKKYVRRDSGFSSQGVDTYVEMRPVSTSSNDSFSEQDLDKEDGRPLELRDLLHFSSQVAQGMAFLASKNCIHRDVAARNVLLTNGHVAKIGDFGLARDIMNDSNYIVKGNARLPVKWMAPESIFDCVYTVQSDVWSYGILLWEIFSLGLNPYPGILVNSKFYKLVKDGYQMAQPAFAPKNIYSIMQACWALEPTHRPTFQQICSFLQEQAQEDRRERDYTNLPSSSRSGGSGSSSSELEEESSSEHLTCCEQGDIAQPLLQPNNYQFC
Description: The lysate was then transferred to total CSF-1R antibody coated 96-well plates that had already been blocked with 3% Blocker A from Mesoscale discovery (MSD) for 2 hours and washed afterwards. Lysates were incubated overnight at 4° C. and the plates were then washed 4× with MSD Tris Wash Buffer. […] The plates were read on the Sector 6000 instrument (MSD). Raw data was imported in Abase and EC50s calculated with XL-fit data analysis software.

kinase domain of cKIT = biological target: T3, kinase domain of cKIT (Homo sapiens, UniProt P10721); assay: Inhibition of cKIT kinase signaling in an in vitro biochemical assay (alphascreen); details: tested at about 1 μM, read-out: cKit percent inhibition
T3 construct: The kinase domain of cKIT was assayed in 50 mM Hepes; purchased Upstate 14-559
T3 sequence (P10721 589-937 limits assumed): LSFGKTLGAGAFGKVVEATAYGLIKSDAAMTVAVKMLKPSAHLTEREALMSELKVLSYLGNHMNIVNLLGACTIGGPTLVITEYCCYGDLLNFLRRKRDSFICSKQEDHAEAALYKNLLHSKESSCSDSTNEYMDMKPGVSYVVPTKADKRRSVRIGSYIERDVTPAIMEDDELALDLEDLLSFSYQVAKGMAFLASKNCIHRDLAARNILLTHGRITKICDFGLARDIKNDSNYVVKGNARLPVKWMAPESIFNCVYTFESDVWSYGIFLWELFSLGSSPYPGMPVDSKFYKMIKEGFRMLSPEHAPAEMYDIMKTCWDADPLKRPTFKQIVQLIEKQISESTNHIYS

[3] = biological target: T4, cytoplasmic domain of the human CSF-1R (Homo sapiens, UniProt P07333); assay: In vitro kinase assay for colony stimulating factor-1 receptor (AlphaScreen); format: biochemical; details: tested at about 1 μM, read-out: CSF-1R percent inhibition
T4 construct: Recombinant protein corresponding to the cytoplasmic domain of the human CSF-1R; purchased Invitrogen Corporation, Carlsbad, Calif; PV3249
T4 sequence (P07333 539-972 limits assumed): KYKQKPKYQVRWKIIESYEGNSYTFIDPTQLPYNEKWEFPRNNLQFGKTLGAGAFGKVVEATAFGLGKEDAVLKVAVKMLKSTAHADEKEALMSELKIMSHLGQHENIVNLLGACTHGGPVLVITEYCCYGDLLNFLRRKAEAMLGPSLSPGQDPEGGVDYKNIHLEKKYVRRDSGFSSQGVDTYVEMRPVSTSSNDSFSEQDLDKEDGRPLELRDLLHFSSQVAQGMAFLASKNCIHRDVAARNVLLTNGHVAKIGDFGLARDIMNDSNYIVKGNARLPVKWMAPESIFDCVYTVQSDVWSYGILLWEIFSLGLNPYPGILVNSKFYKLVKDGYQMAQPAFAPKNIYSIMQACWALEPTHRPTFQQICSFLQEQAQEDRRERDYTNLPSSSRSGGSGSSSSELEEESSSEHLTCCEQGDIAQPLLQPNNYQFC
How it was run: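 Test compounds, serially diluted threefold starting at 25 μM, were mixed with Hepes buffer (pH 7.5, Mg2+/Mn2+, DTT, BSA, Tween 80) containing 1 μM ATP. Recombinant kinase was present at 4 nM. After stopping, beads were added and plates were read the next day by AlphaScreen.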

Row | inhibition at 1 µM (kinase domain of PDGFRβ) | inhibition at 1 µM ([2]; HEK293H cells) | inhibition at 1 µM (kinase domain of cKIT) | inhibition at 1 µM [3] | inhibition at 1 µM (kinase domain of PDGFRβ; compounds of Table 3) | inhibition at 1 µM ([2]; compounds of Table 3) | inhibition at 1 µM (kinase domain of cKIT; compounds of Table 3) | inhibition at 1 µM ([3]; compounds of Table 3) | Compound | inhibition at 1 µM ([1]; MNFS60 cells) | inhibition at 1 µM ([1]; compounds of Table 3) | inhibition at 1 µM ([1]; MCSF dependent MNFS60 cells)
1 | 97% | 88% | 98% | 99% |  |  |  |  | CNC(=O)c1cc(Oc2ccc3nc(NCc4ccccc4N4CCOCC4)sc3c2)ccn1 [Compound 142, 4-[2-(2-Morpholin-4-yl-benzylamino)-benzothiazol-6-yloxy]-2-pyridine-2-carboxylic acid methylamide] | 100% |  | 
2 | 25% | 98% | 34% | 99% |  |  |  |  | CNC(=O)c1cc(Oc2ccc3nc(NCc4c(OC)cccc4OC)sc3c2)ccn1 [Compound 145, 4-[2-(2,6-Dimethoxy-benzyl-amino)-benzothiazol-6-yloxy]-pyridine-2-carboxylic acid methylamide] | 100% |  | 
3 | 3% | 89% | 33% | 99% |  |  |  |  | CCOc1ccccc1CNc1nc2ccc(Oc3ccnc(C(=O)NC)c3)cc2o1 [Compound 96, 4-[2-(2-Ethoxy-benzylamino)-benzooxazol-6-yloxy]-pyridine-2-carboxylic acid methylamide] | 75% |  | 
4 |  |  |  |  | 23% | 96% | 28% | 100% | COc1ccc(-c2cc(Oc3ccc4nc(N[C@@H]5CCCC[C@H]5O)sc4c3)ccn2)cn1 [Cmpd 170, (1R,2R)-2-(6-(6'-methoxy-2,3'-bipyridin-4-yloxy)benzo[d]thiazol-2-ylamino)cyclohexanol] |  | 100% | 
5 |  |  |  |  | 33% | 86% | 39% | 100% | CNC(=O)c1cc(Oc2ccc3nc(NC[C@@H](O)c4ccccc4)sc3c2)ccn1 [Compound 145] |  | 58% | 
6 | 0% | 88% | 96% | 100% |  |  |  |  | CNC(=O)c1cc(Oc2ccc3nc(NCc4ccc(OC)c(OC)c4Cl)oc3c2)ccn1 [Compound 117, 4-[2-(2-Chloro-3,4-dimethoxy-benzylamino)-benzooxazol-6-yloxy]-pyridine-2-carboxylic acid methylamide] | 61% |  | 
7 | 61% | 87% | 84% | 100% |  |  |  |  | c1cc(Oc2ccc3nc(NCC4CCCCC4)sc3c2)cc(-c2ncco2)n1 [Example 342, N-(cyclohexylmethyl)-6-(2-(oxazol-2-yl)pyridin-4-yloxy)benzo[d]thiazol-2-amine] |  |  | 75%
8 | 4% | 91% | 33% | 99% |  |  |  |  | CNC(=O)c1cc(Oc2ccc3nc(NCc4ccccc4-n4cccn4)sc3c2)ccn1 [Compound 143, 4-[2-(2-Pyrazol-1-yl-benzyl-amino)-benzothiazol-6-yloxy]-pyridine-2-carboxylic acid methylamide] | 97% |  | 
9 |  |  |  |  | 21% | 81% | 16% | 100% | CC(C)C[C@H](CO)Nc1nc2ccc(Oc3ccnc4ccccc34)cc2s1 [Example 245, (R)-4-methyl-2-(6-(quinolin-4-yloxy)benzo[d]thiazol-2-ylamino)pentan-1-ol] |  | 53% | 
10 |  |  |  |  | 6% | 98% | 24% | 100% | O[C@@H]1CCCC[C@H]1Nc1nc2ccc(Oc3ccnc(-c4cnn(CCF)c4)c3)cc2s1 [Example 259, (1R,2R)-2-(6-(2-(1-(2-fluoroethyl)-1H-pyrazol-4-yl)pyridin-4-yloxy)benzo[d]thiazol-2-ylamino)cyclohexanol] |  | 100% | 
11 | 91% | 91% | 85% | 99% |  |  |  |  | CNC(=O)c1cc(Oc2ccc3nc(NCC4CCCCCC4)oc3c2)ccn1 [Compound 101, 4-[2-(Cycloheptylmethyl-amino)-benzooxazol-6-yloxy]-pyridine-2-carboxylic acid methylamide] | 85% |  | 
12 |  |  |  |  | 65% | 91% | 48% | 100% | N#Cc1ccc2nccc(Oc3ccc4nc(N[C@@H]5CCCC[C@H]5O)sc4c3)c2c1 [Example 220, 4-(2-((1R,2R)-2-hydroxycyclohexylamino)benzo[d]thiazol-6-yloxy)quinolin-6-carbonitrile] |  | 84% | 
13 |  |  |  |  | 22% | 65% | 11% | 100% | O[C@@H]1CCCC[C@H]1Nc1nc2ccc(Oc3ccnc(-c4ccncc4)c3)cc2s1 [Example 280, (1R,2R)-2-(6-(2,4'-bipyridin-4-yloxy)benzo[d]thiazol-2-ylamino)cyclohexanol] |  | 100% | 
14 | 69% | 84% | 66% | 100% |  |  |  |  | CCNc1cc(Oc2ccc3nc(NCC4CCCCC4)sc3c2)ccn1 [Example 339, N-(cyclohexylmethyl)-6-(2-(ethylamino)pyridin-4-yloxy)benzo[d]thiazol-2-amine] |  |  | 66%
15 | 28% | 77% | 72% | 100% |  |  |  |  | CNC(=O)c1cc(Oc2ccc3nc(N[C@@H]4CCCC[C@H]4O)sc3c2Br)ccn1 [Example 376, 4-(7-bromo-2-((1R,2R)-2-hydroxycyclohexylamino)benzo[d]thiazol-6-yloxy)-N-methylpicolinamide] |  |  | 87%
16 |  |  |  |  | 14% | 88% | 41% | 100% | CCCn1cc(-c2cc(Oc3ccc4nc(N[C@@H](C)C5CCCCC5)sc4c3)ccn2)cn1 [Example 273, (S)-N-(1-cyclohexylethyl)-6-(2-(1-propyl-1H-pyrazol-4-yl)pyridin-4-yloxy)benzo[d]thiazol-2-amine] |  | 95% | 
17 |  |  |  |  | 0% | 82% | 22% | 100% | CNC(=O)c1cc(Oc2ccc3nc(NC4CCCC(O)C4)sc3c2)ccn1 (centres unmarked) [Example 293, 4-(2-(3-hydroxycyclohexylamino)benzo[d]thiazol-6-yloxy)-N-methylpicolinamide] |  | 67% | 
18 |  |  |  |  | 18% | 97% | 22% | 100% | O[C@@H]1CCCC[C@H]1Nc1nc2ccc(Oc3ccnc(-c4ccnc(N5CCOCC5)c4F)c3)cc2s1 [Cmpd 172, (1R,2R)-2-(6-(3'-fluoro-2'-morpholino-2,4'-bipyridin-4-yloxy)benzo[d]thiazol-2-ylamino)cyclohexanol] |  | 100% | 
19 | 25% | 85% | 87% | 99% |  |  |  |  | CNC(=O)c1cc(Oc2ccc3nc(NCc4ccc(Cl)cc4Cl)sc3c2)ccn1 [Compound 130, 4-[2-(2,4-Dichloro-benzylamino)-benzothiazol-6-yloxy]-pyridine-2-carboxylic acid methylamide] | 72% |  | 
